Data reported in US20080279843A1, “Method For Improving Insulin Sensitivity By Administering an Inhibitor of Antitrypsin” (Essential SkinCare, LLC, priority 2003, published 2008).

Assays:
C57/Black female mice = experiment: Glucose tolerance test with insulin and commercial AT (Example 2); type: in vivo
Protocol: C57/Black female mice weighing 22-23 g were fasted for 16 hours. Four animals were used for each of four treatment groups. The first and fourth treatment group received intraperitoneal injections of 1500 μg commercially obtained AT. Exactly 23 hours and 45 minutes after the AT was administered to the first and fourth treatment group, the animals in the first and second treatment group received 0.5 I.U. of insulin. Exactly 15 minutes after the insulin was administered (i.e., 24 hours after the AT was administered to the first treatment group), glucose (3 g/kg) was injected intraperitoneally into the first, second and third treatment groups. Blood samples were taken from the eyes (canthus), and glucose concentrations in whole blood samples were immediately measured with the fast Glucose C test (Wako Chemicals USA Inc., Richmond, Va., USA). The data presented are the mean ±S.D. of four determinations, one with each animal.

[1] = system: differentiated rat L6 muscle cells; experiment: Synthesis of [14C]total lipid from radiolabeled glucose; type: cell-based; settings: FIG. 4C, 5 hours
Protocol: (§1) Rat L6 skeletal muscle cells were obtained from the American Type Culture Collection, Rockville, Md. L6 cell monolayers were induced to differentiate in Minimal Essential Medium (MEM) containing 2% (v/v) fetal bovine serum (FBS) and 1% (v/v) antibiotic/antimycotic solution. The cells were fed fresh medium every 48 hours. Myoblast differentiation, which occurred by about the 7-9th day, was monitored by phase contrast microscopy. Differentiated L6 cells are widely used models for studying glucose metabolism in the skeletal muscle. The present study was focused on these cells, because skeletal muscle accounts for about 70-80% of total blood glucose metabolism in the human body.
To examine cellular glucose uptake and metabolism, differentiated (attached) cells in 12-well plates were incubated at 37° C. in a CO2 incubator (95% air: 5% CO2) with D-[^14C]glucose (1 μCi/mL) in 2% FBS-containing medium containing 5.5 mM unlabeled glucose for 0.5-6 hours as indicated at the corresponding Figures. […] Cells were washed twice with 3 ml medium to remove traces of medium containing unincorporated radioactivity. […]
Aliquots of the upper and lower phases were taken to scintillation vials to determine the amounts of radiolabeled glucose and total lipids, respectively, by liquid scintillation counting. […] No additional radioactivity could be removed from the well by neutralized 30% KOH. […]

[2] = system: differentiated rat L6 muscle cells; experiment: Synthesis of [14C]glycogen from radiolabeled glucose; type: cell-based
Protocol: as §1
To examine cellular glucose uptake and metabolism, differentiated (attached) cells in 12-well plates were incubated at 37° C. in a CO2 incubator (95% air: 5% CO2) with D-[^14C]glucose (1 μCi/mL) in 2% FBS-containing medium containing 5.5 mM unlabeled glucose for 0.5-6 hours as indicated at the corresponding Figures. At the termination of incubation, the medium was removed. An aliquot of the medium was taken to determine the loss of [^14C]glucose from the medium which corresponds to its uptake by cells. Cells were washed twice with 3 ml medium to remove traces of medium containing unincorporated radioactivity. Ice-cold 99.8% methanol/0.2% water (v/v) mixture (1 ml) was then added to the monolayers and cells were extracted for 2 hours at −20° C. […] The methanol phase (1 ml) and a following 1 ml methanol wash were added to 2 ml chloroform followed by the addition of 3 ml water. Of the resulting two phases (separation was facilitated by brief centrifugation), the lower phase contained the total radiolabeled lipids, while the upper phase contained [^14C]glucose.
Aliquots of the upper and lower phases were taken to scintillation vials to determine the amounts of radiolabeled glucose and total lipids, respectively, by liquid scintillation counting. Precipitated [^14C]glycogen was suspended in 0.75 ml of 1 M NaOH and transferred to scintillation vial. This procedure was repeated with another 0.75 ml aliquot of NaOH. To neutralize the suspension, […] (approximately 150 μL) was then added to the vials, followed by the addition of 8.5 ml Ecolume (scintillation fluid). While the 1 M NaOH suspension contained some particulate material (mostly protein which was not labeled with radiolabeled glucose), no precipitate remained in the suspension after addition of Ecolume. […] No additional radioactivity could be removed from the well by neutralized 30% KOH.
In some experiments, a published procedure [Huang, D., Cheung, A. T., Parsons, J. T. and Bryer-Ash, M. “Focal adhesion kinase (FAK) regulates insulin-stimulated glycogen synthesis in hepatocytes.” J. Biol. Chem. 277, 18151-18160, (2002)] was used to determine glucose incorporation into glycogen in a method similar to the one described above. After incubations with [^14C] glucose, cells were solubilized with 20% KOH for 2 hours. Lysates were extracted with 8% […], neutralized with 2.0 M HCl, then boiled for 5 min. The total glycogen was precipitated by the addition of 80% ethanol (final concentration) for 2 hours at −20° C. followed by centrifugation at 1100×g for 10 min. This step was repeated.
After the pellets had been re-dissolved in distilled water, the samples were precipitated again using the same method described above, and yielded essentially the same results. In subsequent experiments the initial methanol precipitation method described above was used because it allowed for analysis of cellular glucose, glycogen and lipids from the same sample.
Three groups of differentiated L6 cells, incubated in 12-well plates in 2% FBS-containing medium, were treated as follows. A first control group ([…]) was untreated. A second group (▴) was treated with 500 nM insulin for 30 min. A third group (▪) was treated first with 0.4 mg/ml of AT followed by an addition of 500 nM insulin for 30 min. […]

For α1-antitrypsin [AT], the “Effect of AT on the action of insulin on blood glucose level” value (C57/Black female mice; FIG. 2, AT 1.5 mg/mouse i.p. 24 h prior, insulin 0.5 I.U., glucose 3 g/kg i.p.) was “blocked the action of insulin”, the “Effect of AT alone on the blood glucose level” value (C57/Black female mice; FIG. 2 insert, AT 1.5 mg/mouse i.p., no insulin, no glucose (fourth treatment group)) was “no significant effect on the blood glucose level” and the “Effect of AT on cellular level of [14C]total lipid in the absence of insulin” value ([1]; 0.05 to 0.4 mg/ml AT) was “did not significantly affect”. The “Decrease of synthesis of [14C]total lipid by AT in the presence of insulin” value ([1]; 0.2 to 0.4 mg/ml AT, 500 nM insulin) was “at least 50%”, the “Effect of AT on the insulin effect on [14C]glycogen, short incubation” value ([2]; 0.4 mg/ml AT, 500 nM insulin, 30 min incubation) was “no such inhibitory effects” and the “Effect of AT on insulin-stimulated synthesis of [14C]glycogen” value ([2]; FIG. 3B, 0.4 mg/ml purified AT, incubations for 2 hrs or 6 hours) was “inhibited both insulin effects”. The “Effect of AT on cellular level of [14C]glycogen in the absence of insulin” value ([2]; FIG. 4B, 0.05 to 0.4 mg/ml AT, 5 hours) was “did not significantly affect”, the “Decrease of synthesis of cellular [14C]glycogen by AT in the presence of insulin” value ([2]; FIG. 4B, 0.2 to 0.4 mg/ml AT, 500 nM insulin, 5 hours) was “at least 50%” and the “Inhibition by AT of the insulin effect on [14C]glycogen synthesis” value ([2]; FIG. 5, 0.4 mg/ml AT, 500 nM insulin, 5 hours) was “about 70%”.
